Data reported in patent US20230381142A1, “ANTILEISHMANIAL COMPOUNDS, COMPOSITIONS AND USE THEREOF” (TRUSTEES OF BOSTON UNIVERSITY, priority 2022, published 2023).
Where two headings read alike, the source gives them in different places.

Columns and labels:
[1] = test system: L. donovani intracellular amastigotes infecting THP-1 macrophages; assay: GSK intramacrophage L. donovani assay (LD AMMAC, inMac; Assay Conditions C); type: cell-based; conditions: Leishmania donovani
Procedure: Assay Conditions C: The intramacrophage Leishmania donovani activity assay was performed as described in Antimicrob Agents Chemother (2013) 57(7):2913-22.
(§1) The intramacrophage Leishmania donovani activity assay (LD AMMAC) at GlaxoSmithKline was performed as described.
(§2) Given the literature precedents described above and the apparent narrow tolerance for R^3 substitutions observed in the primary screen compounds, a thorough and methodical assessment was undertaken of tolerated groups at the three points of diversity (R^1/R^2/R^3) for the core. At this stage of the project, all analogues were assessed using a battery of assays performed in-house at GlaxoSmithKline. For antileishmanial activity, GSK's inMac assay was utilized. This assay provides two readouts of compound potency: average number of intracellular amastigotes per infected cell (AMMAC) EC50, percentage of infected cells per well (INFCELL) EC50, as well as a toxicity output derived from the number of host cells (MAC EC50). In addition, compounds were assessed for toxicity against HepG2 cells (HEPG2 EC50). Here, AMMAC EC50 values were focused on for relative potency assessments. […] It should be noted that for all compounds assessed in this project, the measured toxicity against THP-1 macrophages either equaled or exceeded that of HepG2 hepatocytes, therefore the MAC SI is used here as the more conservative estimate of therapeutic index.

[2] = GSK inMac assay, host cell toxicity readout (LD MAC); type: cell-based, human; conditions: human
Procedure: as §1, §2

[3] = THP-1 cells, values marked c, read-out: L. donovani amastigotes EC50 (THP-1 cells)
[4] = footnote c, read-out: THP-1 Host Cell CC50
[5] = values marked c: THP-1 cells, read-out: L. donovani amastigotes EC50 (μM, THP-1 or B10R cells)

Row | SMILES | EC50 [1, 3] [µM] | CC50 [2, 4] [µM] | EC50 [1, 5] [µM] | CC50 ([2]; host THP-1 cells) [µM]
1 | CC(C)Cc1n[nH]c2c1C(c1ccc(F)cc1)N(c1ccc(C(C)(C)C)cc1)C2=O (stereo not shown) [BUCMD00816] | 10 | > 50 |  | 
2 | CC(C)Cc1n[nH]c2c1C(c1ccc(F)cc1)N(C(CO)CO)C2=O (stereo not shown) [BUCMD00817] | > 50 | > 50 |  | 
3 | COc1ccc(N2C(=O)c3[nH]nc(CC(C)C)c3C2c2cccc(C(F)(F)F)c2)cc1 (stereo not shown) [CMLD007432] | 6.3 | 15.9 |  | 
4 | CC(C)Cc1nn(-c2ccc(OC(F)(F)F)cc2)c2c1C(c1ccccc1)NC2=O (stereo not shown) [CMLD009657] |  |  | 12.6 | ≥ 50.1
5 | CC(C)Cc1n[nH]c2c1C(c1ccc(F)cc1)N(Cc1ccc(C(F)(F)F)cn1)C2=O (stereo not shown) [CMLD010848] | 39.8 | > 50 |  | 
6 | COc1ccc(N2C(=O)c3[nH]nc(CCc4ccccc4)c3C2c2ccc(F)cc2)cc1 (stereo not shown) [CMLD010849] | 6.3 | 25.1 |  | 
7 | COc1cccc(N2C(=O)c3[nH]nc(CC(C)C)c3C2c2ccsc2)c1 (stereo not shown) [CMLD010880] | 20 | 39.8 |  | 
8 | COc1cccc(N2C(=O)c3[nH]nc(CC(C)C)c3C2c2ccccc2Cl)c1 (stereo not shown) [CMLD010881] | 7.9 | 15.8 |  | 
9 | COc1ccc(N2C(=O)c3[nH]nc(CC(C)C)c3C2C2CCN(Cc3ccccc3)CC2)cc1 (stereo not shown) [CMLD010882] | 15.9 | 20 |  | 
10 | COc1cncc(N2C(=O)c3[nH]nc(CC(C)C)c3C2c2ccc(F)cc2)c1 (stereo not shown) [CMLD010883] | 31.6 | > 50 |  | 
11 | CC(C)Cc1n[nH]c2c1C(c1ccc(F)cc1)N(c1ccc(OC(F)(F)F)cc1)C2=O (stereo not shown) [CMLD010885] | 3.2 | 7.9 |  | 
12 | COc1ccc(N2C(=O)c3[nH]nc(CC(C)C)c3C2c2cncc(OC)c2)cc1 (stereo not shown) [CMLD010886] | 10 | 20 |  | 
13 | COc1ccc(N2C(=O)c3[nH]nc(CC(C)C)c3C2c2ccncn2)cc1 (stereo not shown) [CMLD010887] | > 50 | > 50 |  | 
14 | COc1ccc(N2C(=O)c3[nH]nc(CC(C)C)c3C2c2ccc(Br)cc2)cc1 (stereo not shown) [CMLD010889] | 6.3 | 15.9 |  | 
15 | COc1ccc(N2C(=O)c3[nH]nc(CC(C)C)c3C2c2cccc(F)c2)cc1 (stereo not shown) [CMLD010890] | 5 | 12.6 |  | 
16 | COc1ccc(N2C(=O)c3[nH]nc(CC(C)C)c3C2c2cccc(Br)c2)cc1 (stereo not shown) [CMLD010891] | 7.9 | 25.1 |  | 
17 | COc1ccc(N2C(=O)c3[nH]nc(CC(C)C)c3C2C2CCCCC2)cc1 (stereo not shown) [CMLD010892] | 7.9 | 25.1 |  | 
18 | COc1ccc(N2C(=O)c3[nH]nc(CC(C)C)c3C2c2ccccc2Br)cc1 (stereo not shown) [CMLD010894] | 0.5 | 25.1 |  | 
19 | COc1cccc(N2C(=O)c3[nH]nc(CC(C)C)c3C2c2ccc(F)cc2)c1 (stereo not shown) [CMLD010895] | 12.6 | 31.6 |  | 
20 | COc1cc(N2C(=O)c3[nH]nc(CC(C)C)c3C2c2ccc(F)cc2)cc(OC)c1OC (stereo not shown) [CMLD010896] | 4 | 3.2 |  | 
21 | CC(C)Cc1n[nH]c2c1C(c1ccc(F)cc1)N(c1ccc(Br)cc1)C2=O (stereo not shown) [CMLD010897] | 1.3 | 15.9 |  | 
22 | COc1ccc(N2C(=O)c3[nH]nc(CC(C)C)c3C2c2cccc(C(F)(F)F)c2)cn1 (stereo not shown) [CMLD010898] | 2 | 20 |  | 
23 | CCc1ccc(N2C(=O)c3[nH]nc(CC(C)C)c3C2c2ccc(F)cc2)cc1 (stereo not shown) [CMLD010899] | 4 | 20 |  | 
24 | CCOc1ccc(N2C(=O)c3[nH]nc(CC(C)C)c3C2c2ccc(F)cc2)cc1 (stereo not shown) [CMLD010900] | 1.6 | 20 |  | 
25 | COc1ccc(N2C(=O)c3[nH]nc(CC(C)C)c3C2C2CCCCC2)cn1 (stereo not shown) [CMLD010903] | 20 | 31.6 |  | 

Row | SMILES | EC50 [1, 3] [µM] | CC50 [2, 4] [µM] | EC50 [1, 5] [µM] | CC50 ([2]; host THP-1 cells) [µM]
26 | CC(C)Cc1n[nH]c2c1C(c1cccc(C(F)(F)F)c1)N(c1ccc(-n3ccnc3)cc1)C2=O (stereo not shown) [CMLD010924] |  |  | ≥ 50.1 | 39.8
27 | CC(C)Cc1n[nH]c2c1C(c1cccc(C(F)(F)F)c1)N(c1ccc(N(C)C)cc1)C2=O (stereo not shown) [CMLD010925] | 7.9 | 20 |  | 
28 | Cc1cc(F)ccc1C1c2c(CC(C)C)n[nH]c2C(=O)N1c1ccc(-n2ccnc2)cc1 (stereo not shown) [CMLD010926] | 1.3 | 25.1 |  | 
29 | COc1ccc(N2C(=O)c3[nH]nc(CC(C)C)c3[C@@H]2c2ccc(F)cc2C)cc1 [CMLD010949] | 0.5 | 39.8 |  | 
30 | COc1ccc(N2C(=O)c3[nH]nc(CC(C)C)c3[C@H]2c2ccc(F)cc2C)cc1 [CMLD010950] | 6.3 | 31.6 |  | 
31 | COc1ccc(N2C(=O)c3[nH]nc(CC(C)C)c3[C@@H]2c2ccccc2Br)cn1 [CMLD010976] | 1 | 20 |  | 
32 | COc1ccc(N2C(=O)c3[nH]nc(CC(C)C)c3C2C2CCCC2)cc1 (stereo not shown) [CMLD010978] | 12.6 | 20 |  | 
33 | COc1ccc(N2C(=O)c3[nH]nc(-c4ccc(CC(C)C)cc4)c3C2c2ccc(F)cc2)cc1 (stereo not shown) [CMLD010979] | 4 | 7.9 |  | 
34 | COc1ccc(N2C(=O)c3[nH]nc(-c4ccc5c(c4)CCC5)c3C2c2ccc(F)cc2)cc1 (stereo not shown) [CMLD010980] | 5 | 7.9 |  | 
35 | COc1ccc(N2C(=O)c3[nH]nc(CCC=C(C)C)c3C2c2ccc(F)cc2)cc1 (stereo not shown) [CMLD010981] | 6.3 | 20 |  | 
36 | CCCn1nc(CC(C)C)c2c1C(=O)N(c1ccc(OC)cc1)C2c1ccc(F)cc1 (stereo not shown) [CMLD010982] | 5 | 25.1 |  | 
37 | C=CCn1nc2c(c1CC(C)C)C(c1ccc(F)cc1)N(c1ccc(OC)cc1)C2=O (stereo not shown) [CMLD010984] |  |  | 6.3 | 31.6
38 | C=CCn1nc(CC(C)C)c2c1C(=O)N(c1ccc(OC)cc1)C2c1ccc(F)cc1 (stereo not shown) [CMLD010985] | 2.5 | 31.6 |  | 
39 | COc1ccc(N2C(=O)c3nn(C)c(CC(C)C)c3C2c2ccc(F)cc2)cc1 (stereo not shown) [CMLD010988] |  |  | 7.9 | 25.1
40 | COc1ccc(N2C(=O)c3c(c(CC(C)C)nn3C)C2c2ccc(F)cc2)cc1 (stereo not shown) [CMLD010989] | 1.6 | 25.1 |  | 
41 | CCCn1nc2c(c1CC(C)C)C(c1ccc(F)cc1)N(c1ccc(OC)cc1)C2=O (stereo not shown) [CMLD010990] |  |  | 7.9 | 25.1
42 | COc1ccc(N2C(=O)c3[nH]nc(CC(C)C)c3C2c2cncs2)cc1 (stereo not shown) [CMLD010991] | 15.9 | > 50 |  | 
43 | COc1ccc(N2C(=O)c3[nH]nc(CC(C)C)c3C2c2ccc(F)cc2)c(OC)c1 (stereo not shown) [CMLD010992] | 20 | 31.6 |  | 
44 | CC(C)Cc1n[nH]c2c1[C@H](c1ccc(F)cc1)N(c1ccc3ncnn3c1)C2=O [CMLD010993] | 10 | 25.1 |  | 
45 | COc1ccc(N2C(=O)c3[nH]nc(CC(C)C)c3C2c2ccccc2OC)cc1 (stereo not shown) [CMLD010994] | 0.5 | 25.1 |  | 
46 | COc1ccc(N2C(=O)c3[nH]nc(CC(C)C)c3C2c2cc(C(F)(F)F)ccc2C(F)(F)F)cc1 (stereo not shown) [CMLD010996] | 6.3 | 25.1 |  | 
47 | CC(C)Cc1n[nH]c2c1C(c1ccccc1Cl)N(c1ccc(-n3ccnc3)cc1)C2=O (stereo not shown) [CMLD010998] | 6.3 | ≥ 50.1 |  | 
48 | C=CCCc1n[nH]c2c1C(c1ccc(F)cc1)N(c1ccc(OC)cc1)C2=O (stereo not shown) [CMLD011024] | 1.6 | 3.2 |  | 
49 | C=C(C)CCc1n[nH]c2c1C(c1ccc(F)cc1)N(c1ccc(OC)cc1)C2=O (stereo not shown) [CMLD011025] | 0.5 | 1.6 |  | 
50 | COc1ccc(CN2C(=O)c3[nH]nc(CC(C)C)c3C2c2ccc(F)cc2)cc1 (stereo not shown) [CMLD011026] | 12.6 | 31.6 |  | 
